# Reference: patent publication US10208016B2, “1-sulfonyl piperidine derivatives as modulators of prokineticin receptors” (TAKEDA PHARMACEUTICAL COMPANY LIMITED, priority 2013, dated 2019)
# Molecular target: human PKR1 receptors (Homo sapiens (Human), UniProt Q8TCW9)
# Experiment: PKR1 antagonist calcium mobilisation assay (FLIPR), block of PK1-mediated intracellular calcium release
# Assay type: cell-based
# Conditions: RBL2H3 cells expressing human PKR1; stimulation with PK1 at EC80; calcium fluorescence
# Protocol: Prokineticin receptor 1 (PKR1) antagonists may be functionally assessed by measurement of change in intracellular calcium levels induced by Gq mediated increase in inositol triphosphate (IP3) levels. The ability of a compound to block the intracellular release of calcium mediated by PK1 in RBL2H3 cells expressing human PKR1 receptors is determined as a measure of the compound's antagonist activity in vitro.
# Approximately 10,000 cells per assay well are seeded in normal culture medium in a 384 well plate (Corning). Twenty-four hours after seeding, the cells are loaded with a calcium sensitive fluorescent dye by replacing the culture medium with assay buffer (1× Hanks buffered saline, 25 mM HEPES, 0.1% w/v fatty acid free BSA (bovine serum albumin), pH 7.4) containing 1 mM probenecid and 1× Calcium 5 Reagent (Molecular Devices). Cells are incubated at 37° C. for 1 hour to allow for dye uptake.
# To test for antagonist activity, test compounds at a final concentration range between 0.32 nM-10 μM (diluted in assay buffer) are added to the assay wells and allowed to incubate for 10 minutes prior to stimulation with PK1. After incubation with test compounds the assay plate is placed in a FLIPR Tetra (Molecular Devices) and PK1 (diluted in assay buffer) is added at the determined EC80 concentration (final). Ligand-dependent changes in intracellular calcium levels are determined by measuring changes in fluorescence of the dye at […] following excitation at 485 nm.
# Sequence of human PKR1 receptors (Q8TCW9 whole entry): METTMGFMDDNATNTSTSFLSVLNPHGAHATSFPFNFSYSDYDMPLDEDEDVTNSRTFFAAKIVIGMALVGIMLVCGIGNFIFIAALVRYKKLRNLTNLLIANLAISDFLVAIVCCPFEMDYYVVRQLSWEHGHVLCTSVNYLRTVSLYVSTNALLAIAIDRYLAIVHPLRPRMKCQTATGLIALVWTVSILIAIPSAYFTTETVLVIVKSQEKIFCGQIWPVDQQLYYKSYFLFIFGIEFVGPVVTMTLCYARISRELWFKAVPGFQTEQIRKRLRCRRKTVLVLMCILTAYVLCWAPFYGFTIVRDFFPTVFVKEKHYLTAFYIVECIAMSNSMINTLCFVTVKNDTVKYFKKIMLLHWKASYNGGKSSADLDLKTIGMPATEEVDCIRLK
row,Compound,IC50 [µM]
1,"Cc1[nH]nc(C2CC2)c1S(=O)(=O)N1CCC(Cc2ccc(Cl)c(F)c2)CC1 [Example 1, 4-(4-Chloro-3-fluorobenzyl)-1-((3-cyclopropyl-5-methyl-1H-pyrazol-4-yl)sulfonyl)piperidine]",1.37
2,"COC(=O)C(=C1CCN(S(=O)(=O)c2c(C)n[nH]c2C)CC1)c1ccc(Cl)cc1 [Example 2, Methyl 2-(4-Chlorophenyl)-2-(1-((3,5-dimethyl-1H-pyrazol-4-yl)sulfonyl)piperidin-4-ylidene)acetate]",3.1
3,"Cc1n[nH]c(C)c1S(=O)(=O)N1CCC(=C(C#N)c2c(F)cccc2F)CC1 [Example 4, 2-(2,6-Difluorophenyl)-2-(1-((3,5-dimethyl-1H-pyrazol-4-yl)sulfonyl)piperidin-4-ylidene)acetonitrile]",3.68
4,"Cc1nn(C)c(C)c1S(=O)(=O)N1CCC(=C(C#N)c2c(F)cccc2F)CC1 [Example 8, 2-(2,6-Difluorophenyl)-2-(1-((1,3,5-trimethyl-1H-pyrazol-4-yl)sulfonyl)piperidin-4-ylidene)acetonitrile]",5.43
5,"Cc1n[nH]c(C)c1S(=O)(=O)N1CC/C(=C(\C#N)c2ccc(Cl)cc2)C(C)C1 (stereo not shown) [Example 10, 2-(4-Chlorophenyl)-2-(1-((3,5-dimethyl-1H-pyrazol-4-yl)sulfonyl)-3-methylpiperidin-4-ylidene) acetonitrile]",0.47
6,"Cc1n[nH]c(C)c1S(=O)(=O)N1CCC(=Cc2ccc(Cl)cc2F)CC1 [Example 11, 4-(4-Chloro-2-fluorobenzylidene)-1-((3,5-dimethyl-1H-pyrazol-4-yl)sulfonyl)piperidine]",0.6
7,"Cc1nn(C)c(C)c1S(=O)(=O)N1CCC(=Cc2ccc(Cl)cc2F)CC1 [Example 12, 4-(4-Chloro-2-fluorobenzylidene)-1-((1,3,5-trimethyl-1H-pyrazol-4-yl)sulfonyl)piperidine]",0.55
8,CC(=C1CCN(S(=O)(=O)c2c(C)n[nH]c2C)CC1)c1ccc(Cl)cc1 [Example 13],0.76
9,"Cc1nn(C)c(C)c1S(=O)(=O)N1CCC(=C(C#N)c2ccc(Cl)cc2)CC1 [Example 15, 2-(4-Chlorophenyl)-2-(1-((1,3,5-trimethyl-1H-pyrazol-4-yl)sulfonyl)piperidin-4-ylidene)acetonitrile]",0.04
10,"Cc1n[nH]c(C)c1S(=O)(=O)N1CCC(=C(F)c2ccc(Cl)cc2)CC1 [Example 16, 4-((4-Chlorophenyl)fluoromethylene)-1-((3,5-dimethyl-1H-pyrazol-4-yl)sulfonyl)piperidine]",0.16
11,"Cc1n[nH]c(C)c1S(=O)(=O)N1CCC(=C(F)c2ccc(F)c(Cl)c2)CC1 [Example 17, 4-((3-Chloro-4-fluorophenyl)fluoromethylene)-1-((3,5-dimethyl-1H-pyrazol-4-yl)sulfonyl) piperidine]",1.88
12,"Cc1n[nH]c(C)c1S(=O)(=O)N1CCC(=C(F)c2ccc(Cl)cc2Cl)CC1 [Example 18, 4-((2,4-Dichlorophenyl)fluoromethylene)-1-((3,5-dimethyl-1H-pyrazol-4-yl)sulfonyl)piperidine]",0.26
13,"Cc1n[nH]c(C)c1S(=O)(=O)N1CCC(=C(F)c2ccc(Cl)c(Cl)c2)CC1 [Example 19, 4-((3,4-Dichlorophenyl)fluoromethylene)-1-((3,5-dimethyl-1H-pyrazol-4-yl)sulfonyl)piperidine]",0.52

# Continued, values first:
row,IC50 [µM],Compound
1,0.04,"Cc1n[nH]c(C)c1S(=O)(=O)N1CCC(=C(C#N)c2ccc(Cl)cc2)CC1 [Example 3, 2-(4-Chlorophenyl)-2-(1-((3,5-dimethyl-1H-pyrazol-4-yl)sulfonyl)piperidin-4-ylidene)acetonitrile]"
2,0.18,"Cc1n[nH]c(C)c1S(=O)(=O)N1CCC(=C(C#N)c2ccc(Cl)cc2F)CC1 [Example 5, 2-(4-Chloro-2-fluorophenyl)-2-(1-((3,5-dimethyl-1H-pyrazol-4-yl)sulfonyl)piperidin-4-ylidene)acetonitrile]"
3,0.05,"CCc1n[nH]c(CC)c1S(=O)(=O)N1CCC(=C(C#N)c2ccc(Cl)cc2)CC1 [Example 6, 2-(4-Chlorophenyl)-2-(1-((3,5-diethyl-1H-pyrazol-4-yl)sulfonyl)piperidin-4-ylidene)acetonitrile]"
4,0.21,"Cc1c(S(=O)(=O)N2CCC(=C(C#N)c3ccc(Cl)cc3)CC2)c(C(F)(F)F)nn1C [Example 7, 2-(4-Chlorophenyl)-2-(1-((1,5-dimethyl-3-(trifluoromethyl)-1H-pyrazol-4-yl)sulfonyl)piperidin-4-ylidene)acetonitrile]"
5,0.15,Cc1n[nH]c(C)c1S(=O)(=O)N1CCC(=C(C#N)c2ccc(OC(F)(F)F)cc2)CC1 [Example 9]
6,0.76,"Cc1n[nH]c(C)c1S(=O)(=O)N1CCC(=Cc2ccc(Cl)cc2)CC1 [Example 14, 4-(4-Chlorobenzylidene)-1-((3,5-dimethyl-1H-pyrazol-4-yl)sulfonyl)piperidine]"
7,0.19,"Cc1n[nH]c(C)c1S(=O)(=O)N1CCC(=C(F)c2ccc(Cl)c(F)c2)CC1 [Example 20, 4-((4-Chloro-3-fluorophenyl)fluoromethylene)-1-((3,5-dimethyl-1H-pyrazol-4-yl)sulfonyl)piperidine]"
8,0.4,"Cc1n[nH]c(C)c1S(=O)(=O)N1CCC(=C(F)c2ccc(Cl)cc2F)CC1 [Example 21, 4-((4-Chloro-2-fluorophenyl)fluoromethylene)-1-((3,5-dimethyl-1H-pyrazol-4-yl)sulfonyl)piperidine]"
9,0.06,Cc1n[nH]c(C)c1S(=O)(=O)N1CCC(=C(F)c2cnc3ccccc3c2)CC1 [Example 23]
